Measured values: ChEMBL document CHEMBL4507319 (2021)
The source made the active and inactive calls. The rule behind the calls is not given here.

What was measured:
[1] = molecular target: 5'-AMP-activated protein kinase catalytic subunit alpha-1 (Homo sapiens, UniProt Q13131); experiment: Biochemical PRKAA1 assay with 10 µM ATP (Bayer in house)
[2] = molecular target: Tyrosine-protein kinase ABL1 (Homo sapiens) (UniProt P00519); conditions: Compound concentration 1000.0 nM
[3] = molecular target: Cyclin-dependent kinase 5 (Homo sapiens) (UniProt Q00535); conditions: Compound concentration 1000.0 nM
[4] = tested on: Epidermal growth factor receptor (Homo sapiens), P00533 [L858R,T790M]; conditions: Compound concentration 1000.0 nM
[5] = molecular target: T1, Ephrin type-B receptor 4 (Homo sapiens) (UniProt P54760); conditions: Compound concentration 1000.0 nM
T1 sequence (whole entry): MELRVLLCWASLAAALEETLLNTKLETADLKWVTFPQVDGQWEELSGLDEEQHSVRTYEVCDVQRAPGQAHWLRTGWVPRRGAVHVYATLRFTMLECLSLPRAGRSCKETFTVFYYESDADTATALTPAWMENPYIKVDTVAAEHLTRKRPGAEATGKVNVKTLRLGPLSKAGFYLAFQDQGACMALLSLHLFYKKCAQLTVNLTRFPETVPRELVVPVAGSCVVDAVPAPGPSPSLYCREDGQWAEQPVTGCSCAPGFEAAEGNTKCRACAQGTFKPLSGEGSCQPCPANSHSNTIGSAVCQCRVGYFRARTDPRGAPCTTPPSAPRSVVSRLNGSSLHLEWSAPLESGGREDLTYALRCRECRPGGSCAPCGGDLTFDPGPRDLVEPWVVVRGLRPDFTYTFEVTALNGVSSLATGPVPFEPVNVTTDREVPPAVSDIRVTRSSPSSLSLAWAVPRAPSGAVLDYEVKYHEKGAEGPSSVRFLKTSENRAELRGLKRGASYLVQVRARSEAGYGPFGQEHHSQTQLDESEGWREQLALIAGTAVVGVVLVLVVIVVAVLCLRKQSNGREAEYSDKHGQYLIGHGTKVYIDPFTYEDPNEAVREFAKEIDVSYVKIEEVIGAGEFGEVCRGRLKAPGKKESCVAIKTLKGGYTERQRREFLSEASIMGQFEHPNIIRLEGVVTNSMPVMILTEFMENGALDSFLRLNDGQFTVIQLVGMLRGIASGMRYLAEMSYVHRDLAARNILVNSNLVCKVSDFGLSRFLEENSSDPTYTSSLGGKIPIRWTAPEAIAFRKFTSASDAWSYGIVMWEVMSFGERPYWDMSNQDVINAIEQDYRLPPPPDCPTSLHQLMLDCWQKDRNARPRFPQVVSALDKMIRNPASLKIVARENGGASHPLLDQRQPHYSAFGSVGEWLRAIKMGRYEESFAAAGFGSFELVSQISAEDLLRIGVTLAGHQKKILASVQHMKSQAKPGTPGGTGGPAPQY

[6] = tested on: Receptor-type tyrosine-protein kinase FLT3 (Homo sapiens), P36888 [K663Q]; conditions: Compound concentration 1000.0 nM
[7] = molecular target: Serine/threonine-protein kinase LATS1 (Homo sapiens) (UniProt O95835); conditions: Compound concentration 1000.0 nM
[8] = molecular target: Mitogen-activated protein kinase kinase kinase kinase 4 (Homo sapiens) (UniProt O95819); conditions: Compound concentration 1000.0 nM
[9] = molecular target: T2, Myosin light chain kinase (Homo sapiens) (UniProt Q32MK0); conditions: Compound concentration 1000.0 nM
T2 sequence (whole entry): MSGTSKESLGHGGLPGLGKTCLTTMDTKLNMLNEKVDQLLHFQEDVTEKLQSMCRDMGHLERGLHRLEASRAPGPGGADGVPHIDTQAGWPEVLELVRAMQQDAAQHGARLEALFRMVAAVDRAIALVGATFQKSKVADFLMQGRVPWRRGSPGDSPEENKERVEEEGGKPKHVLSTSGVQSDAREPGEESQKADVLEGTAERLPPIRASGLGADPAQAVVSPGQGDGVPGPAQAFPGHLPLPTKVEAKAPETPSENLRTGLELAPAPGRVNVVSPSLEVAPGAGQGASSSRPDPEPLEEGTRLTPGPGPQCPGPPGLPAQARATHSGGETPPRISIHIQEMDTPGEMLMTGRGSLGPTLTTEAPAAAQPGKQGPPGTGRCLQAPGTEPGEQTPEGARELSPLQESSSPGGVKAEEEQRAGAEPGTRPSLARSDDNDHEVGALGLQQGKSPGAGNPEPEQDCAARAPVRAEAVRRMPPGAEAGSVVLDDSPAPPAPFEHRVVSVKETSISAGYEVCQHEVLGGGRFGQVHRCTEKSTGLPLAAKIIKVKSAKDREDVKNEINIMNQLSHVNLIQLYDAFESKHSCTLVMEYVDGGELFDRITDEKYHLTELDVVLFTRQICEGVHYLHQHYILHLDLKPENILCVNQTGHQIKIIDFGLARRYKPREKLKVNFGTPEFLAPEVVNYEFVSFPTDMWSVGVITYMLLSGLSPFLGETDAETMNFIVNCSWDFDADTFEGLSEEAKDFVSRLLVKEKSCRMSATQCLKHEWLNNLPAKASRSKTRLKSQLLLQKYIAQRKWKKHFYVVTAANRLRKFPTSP

[10] = molecular target: Myosin-IIIa (Homo sapiens) (UniProt Q8NEV4); conditions: Compound concentration 1000.0 nM
[11] = molecular target: Serine/threonine-protein kinase Nek5 (Homo sapiens) (UniProt Q6P3R8); conditions: Compound concentration 1000.0 nM
[12] = molecular target: Serine/threonine-protein kinase PAK 5 (Homo sapiens) (UniProt Q9P286); conditions: Compound concentration 1000.0 nM
[13] = tested on: Phosphatidylinositol 4,5-bisphosphate 3-kinase catalytic subunit alpha isoform (Homo sapiens), P42336 [C420R]; conditions: Compound concentration 1000.0 nM
[14] = tested on: Phosphatidylinositol 4,5-bisphosphate 3-kinase catalytic subunit alpha isoform (Homo sapiens), P42336 [I800L]; conditions: Compound concentration 1000.0 nM
[15] = tested on: Phosphatidylinositol 4,5-bisphosphate 3-kinase catalytic subunit alpha isoform (Homo sapiens), P42336 [M1043I]; conditions: Compound concentration 1000.0 nM
[16] = molecular target: Phosphatidylinositol 4-phosphate 5-kinase type-1 gamma (Homo sapiens) (UniProt O60331); conditions: Compound concentration 1000.0 nM
[17] = molecular target: Serine/threonine-protein kinase N1 (Homo sapiens) (UniProt Q16512); conditions: Compound concentration 1000.0 nM
[18] = tested on: Proto-oncogene tyrosine-protein kinase receptor Ret (Homo sapiens), P07949 [V804M]; conditions: Compound concentration 1000.0 nM
[19] = molecular target: Serine/threonine-protein kinase RIO2 (Homo sapiens) (UniProt Q9BVS4); conditions: Compound concentration 1000.0 nM
[20] = molecular target: Receptor-interacting serine/threonine-protein kinase 4 (Homo sapiens) (UniProt P57078); conditions: Compound concentration 1000.0 nM

Chain of Serine/threonine-protein kinase N1 (Homo sapiens) (Q16512 2-942 limits assumed): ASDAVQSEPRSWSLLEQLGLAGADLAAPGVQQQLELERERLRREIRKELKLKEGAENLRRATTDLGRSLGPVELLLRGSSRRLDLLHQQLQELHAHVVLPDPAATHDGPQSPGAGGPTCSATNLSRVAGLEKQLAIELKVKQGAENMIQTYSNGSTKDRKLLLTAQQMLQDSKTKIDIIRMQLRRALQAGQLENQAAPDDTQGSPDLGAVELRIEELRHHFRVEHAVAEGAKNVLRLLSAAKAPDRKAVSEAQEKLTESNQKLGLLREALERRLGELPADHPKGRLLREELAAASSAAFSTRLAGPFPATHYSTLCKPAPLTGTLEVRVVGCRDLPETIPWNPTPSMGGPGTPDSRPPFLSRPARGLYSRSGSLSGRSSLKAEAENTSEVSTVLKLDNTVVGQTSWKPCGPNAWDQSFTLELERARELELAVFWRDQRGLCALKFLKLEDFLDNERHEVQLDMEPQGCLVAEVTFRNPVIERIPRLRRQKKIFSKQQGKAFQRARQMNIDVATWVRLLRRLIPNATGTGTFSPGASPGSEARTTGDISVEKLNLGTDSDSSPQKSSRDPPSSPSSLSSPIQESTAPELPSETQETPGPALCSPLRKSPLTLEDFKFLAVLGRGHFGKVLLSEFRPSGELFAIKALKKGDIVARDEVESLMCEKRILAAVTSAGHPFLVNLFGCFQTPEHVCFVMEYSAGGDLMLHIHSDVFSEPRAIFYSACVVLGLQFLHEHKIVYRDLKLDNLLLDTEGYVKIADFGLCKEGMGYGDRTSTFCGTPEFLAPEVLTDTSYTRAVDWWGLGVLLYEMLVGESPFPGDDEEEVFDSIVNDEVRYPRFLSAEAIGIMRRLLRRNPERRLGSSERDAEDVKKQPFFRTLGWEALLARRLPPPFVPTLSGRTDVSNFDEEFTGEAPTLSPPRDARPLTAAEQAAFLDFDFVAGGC
Chain of Proto-oncogene tyrosine-protein kinase receptor Ret (Homo sapiens), P07949 [V804M] (P07949 whole entry V804M): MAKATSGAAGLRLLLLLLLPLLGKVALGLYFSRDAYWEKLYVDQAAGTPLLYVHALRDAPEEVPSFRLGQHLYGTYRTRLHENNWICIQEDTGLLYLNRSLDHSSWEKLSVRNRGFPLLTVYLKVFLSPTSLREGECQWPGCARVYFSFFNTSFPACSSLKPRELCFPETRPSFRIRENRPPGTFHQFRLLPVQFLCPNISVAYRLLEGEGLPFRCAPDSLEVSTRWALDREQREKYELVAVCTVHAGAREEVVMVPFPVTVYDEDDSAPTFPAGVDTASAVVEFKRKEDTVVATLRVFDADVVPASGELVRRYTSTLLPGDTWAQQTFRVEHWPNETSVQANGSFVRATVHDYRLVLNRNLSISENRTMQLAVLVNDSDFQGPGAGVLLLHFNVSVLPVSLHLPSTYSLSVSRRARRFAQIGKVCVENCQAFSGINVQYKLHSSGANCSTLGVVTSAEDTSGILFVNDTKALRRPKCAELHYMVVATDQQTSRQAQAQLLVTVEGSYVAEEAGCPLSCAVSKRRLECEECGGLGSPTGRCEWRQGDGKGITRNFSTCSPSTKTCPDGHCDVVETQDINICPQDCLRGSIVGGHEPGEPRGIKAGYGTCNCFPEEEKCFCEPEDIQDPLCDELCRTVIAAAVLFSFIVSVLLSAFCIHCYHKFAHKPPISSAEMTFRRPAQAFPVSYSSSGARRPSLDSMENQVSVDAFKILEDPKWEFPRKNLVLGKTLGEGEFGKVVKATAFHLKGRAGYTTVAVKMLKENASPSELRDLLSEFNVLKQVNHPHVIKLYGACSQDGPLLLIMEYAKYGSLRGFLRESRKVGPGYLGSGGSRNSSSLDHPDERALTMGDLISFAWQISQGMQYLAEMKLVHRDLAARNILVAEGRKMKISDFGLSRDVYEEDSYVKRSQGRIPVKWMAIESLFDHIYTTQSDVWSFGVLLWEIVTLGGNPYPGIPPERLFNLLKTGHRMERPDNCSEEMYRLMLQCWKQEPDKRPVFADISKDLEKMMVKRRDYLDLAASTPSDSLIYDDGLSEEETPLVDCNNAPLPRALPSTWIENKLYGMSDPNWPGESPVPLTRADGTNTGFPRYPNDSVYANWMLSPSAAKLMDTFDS
Chain of Serine/threonine-protein kinase RIO2 (Homo sapiens) (Q9BVS4 whole entry, looked up): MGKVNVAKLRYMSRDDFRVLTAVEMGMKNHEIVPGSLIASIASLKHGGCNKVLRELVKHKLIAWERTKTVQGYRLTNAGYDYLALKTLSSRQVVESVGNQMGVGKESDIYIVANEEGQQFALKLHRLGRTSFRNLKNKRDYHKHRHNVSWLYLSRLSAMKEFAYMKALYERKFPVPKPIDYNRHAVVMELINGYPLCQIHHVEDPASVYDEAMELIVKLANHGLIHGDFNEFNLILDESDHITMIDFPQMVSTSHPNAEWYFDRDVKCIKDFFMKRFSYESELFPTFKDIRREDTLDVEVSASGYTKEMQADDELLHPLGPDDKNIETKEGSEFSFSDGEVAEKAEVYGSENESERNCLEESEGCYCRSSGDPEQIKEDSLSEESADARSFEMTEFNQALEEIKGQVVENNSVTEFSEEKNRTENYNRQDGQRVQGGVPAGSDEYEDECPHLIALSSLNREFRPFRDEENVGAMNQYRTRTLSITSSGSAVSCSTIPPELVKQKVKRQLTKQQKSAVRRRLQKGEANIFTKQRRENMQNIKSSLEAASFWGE
Chain of Phosphatidylinositol 4-phosphate 5-kinase type-1 gamma (Homo sapiens) (O60331 whole entry): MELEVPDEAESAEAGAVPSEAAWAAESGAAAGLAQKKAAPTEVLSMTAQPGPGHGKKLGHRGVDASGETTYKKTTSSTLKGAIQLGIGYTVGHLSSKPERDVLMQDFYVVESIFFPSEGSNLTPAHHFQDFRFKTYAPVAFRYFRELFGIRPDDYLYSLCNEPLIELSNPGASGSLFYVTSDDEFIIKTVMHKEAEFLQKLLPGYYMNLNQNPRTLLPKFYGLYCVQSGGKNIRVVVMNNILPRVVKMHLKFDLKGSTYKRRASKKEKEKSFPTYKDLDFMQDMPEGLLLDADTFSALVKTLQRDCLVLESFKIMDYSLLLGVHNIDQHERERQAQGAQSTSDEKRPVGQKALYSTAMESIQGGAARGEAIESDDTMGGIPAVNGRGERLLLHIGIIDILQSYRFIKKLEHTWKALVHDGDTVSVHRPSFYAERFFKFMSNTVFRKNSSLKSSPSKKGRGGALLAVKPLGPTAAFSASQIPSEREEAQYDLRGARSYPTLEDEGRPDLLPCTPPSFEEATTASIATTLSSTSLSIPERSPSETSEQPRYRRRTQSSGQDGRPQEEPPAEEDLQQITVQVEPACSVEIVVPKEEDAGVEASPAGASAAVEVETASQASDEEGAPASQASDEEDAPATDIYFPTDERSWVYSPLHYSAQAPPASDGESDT
Chain of Serine/threonine-protein kinase LATS1 (Homo sapiens) (O95835 whole entry): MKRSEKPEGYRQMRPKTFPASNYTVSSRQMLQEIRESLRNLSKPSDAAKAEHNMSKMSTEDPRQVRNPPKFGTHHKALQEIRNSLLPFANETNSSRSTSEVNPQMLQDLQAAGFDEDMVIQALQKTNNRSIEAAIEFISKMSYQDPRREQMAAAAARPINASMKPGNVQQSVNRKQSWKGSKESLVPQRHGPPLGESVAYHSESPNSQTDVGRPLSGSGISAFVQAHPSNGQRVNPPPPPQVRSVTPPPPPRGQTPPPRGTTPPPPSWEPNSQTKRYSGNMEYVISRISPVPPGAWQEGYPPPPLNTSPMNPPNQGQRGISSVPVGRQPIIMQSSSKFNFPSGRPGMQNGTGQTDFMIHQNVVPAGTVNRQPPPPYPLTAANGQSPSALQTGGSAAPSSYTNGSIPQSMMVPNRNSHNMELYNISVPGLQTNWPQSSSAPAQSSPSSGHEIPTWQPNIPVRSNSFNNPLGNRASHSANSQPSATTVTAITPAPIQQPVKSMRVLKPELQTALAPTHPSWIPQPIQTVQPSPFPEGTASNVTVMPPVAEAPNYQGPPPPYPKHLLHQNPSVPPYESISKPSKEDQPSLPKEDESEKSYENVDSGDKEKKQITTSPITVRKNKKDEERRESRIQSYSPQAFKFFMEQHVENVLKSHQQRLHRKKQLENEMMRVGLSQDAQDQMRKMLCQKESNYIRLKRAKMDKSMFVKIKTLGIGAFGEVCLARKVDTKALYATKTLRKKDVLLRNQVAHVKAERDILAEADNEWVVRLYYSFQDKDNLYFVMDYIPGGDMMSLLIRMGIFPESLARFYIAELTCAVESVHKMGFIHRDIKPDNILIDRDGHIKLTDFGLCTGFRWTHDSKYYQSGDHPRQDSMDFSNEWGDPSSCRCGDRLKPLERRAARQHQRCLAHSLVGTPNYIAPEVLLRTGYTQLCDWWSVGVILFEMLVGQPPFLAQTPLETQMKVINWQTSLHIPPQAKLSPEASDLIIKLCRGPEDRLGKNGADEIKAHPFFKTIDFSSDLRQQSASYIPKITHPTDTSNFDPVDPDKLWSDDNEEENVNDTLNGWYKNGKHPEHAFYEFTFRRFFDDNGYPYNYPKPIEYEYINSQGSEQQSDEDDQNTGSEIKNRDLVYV
Chain of Cyclin-dependent kinase 5 (Homo sapiens) (Q00535 whole entry, looked up): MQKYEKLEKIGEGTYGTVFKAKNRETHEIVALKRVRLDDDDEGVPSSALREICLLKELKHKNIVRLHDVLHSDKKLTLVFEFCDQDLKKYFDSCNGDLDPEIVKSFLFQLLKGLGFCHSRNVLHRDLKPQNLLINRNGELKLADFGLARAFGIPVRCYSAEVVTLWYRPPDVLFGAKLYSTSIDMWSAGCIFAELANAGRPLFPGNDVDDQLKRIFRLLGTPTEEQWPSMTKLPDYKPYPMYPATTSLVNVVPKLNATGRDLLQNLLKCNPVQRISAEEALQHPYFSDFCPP

SMILES	IC50 [1]	residual activity [2] [%]	residual activity [3] [%]	residual activity [4] [%]	residual activity [5] [%]	residual activity [6] [%]	residual activity [7] [%]	residual activity [8] [%]	residual activity [9] [%]	residual activity [10] [%]	residual activity [11] [%]	residual activity [12] [%]	residual activity [13] [%]	residual activity [14] [%]	residual activity [15] [%]	residual activity [16] [%]	residual activity [17] [%]	residual activity [18] [%]	residual activity [19] [%]	residual activity [20] [%]
CCc1ccccc1C(=O)Nc1n[nH]c2c(C)c(F)c(C3C(C#N)=C(C)N(C)C(C)=C3C#N)cc12 [BAY-3827]	0.0014 µM (active)	88	89	97	51	13	100	100	100	68	100	100	100	100	75	56	100	11	93	92
CC1=C(C#N)C(c2ccc3c(c2)c(NC(=O)c2ccccc2C)nn3C)C(C#N)=C(C)N1 [BAY-974]	> 20 µM (not active)	66	87	93	97	100	85	100	86	86	100	100	74	93	100	91	78	91	65	78
